Data on 18 molecules can be found in patent US12274264B2, “Piperonylic acid derivative and application thereof” (SHENYANG SINOCHEM AGROCHEMICALS R&D CO., LTD., priority 2019, dated 2025).

Where two headings read alike, the source gives them in different places.

Common to all, as to assay type: in vivo
In one data set the test system is diamondback moth. The data set is described as follows: Determination of activity against diamondback moth (cabbage leaf disc dip, mortality after 72 hours). Particulars: Plutella xylostella, foliar, 10 mg/L, second instar, read-out: mortality rates against diamondback moth. The method, then:
(§1) According to the solubility of test compounds, the compounds are dissolved with acetone or dimethyl sulfoxide, and then diluted with 0.1% Tween 80 solution to form a required concentration of 50 ml test liquid. The content of the acetone or the dimethyl sulfoxide in the total solution is not more than 10%.
The leaves of cabbage grown in greenhouse were selected, removed the surface waxy layers, punched into circular leaf discs with a diameter of 2 cm by using a puncher, and dipped into a solution of the required concentration of test compounds for 10 seconds. After dried in shade, the circular leaf discs were placed in a 9 cm diameter petri dish provided with filter paper. Ten regular healthy test insects (second instar) were put into the leaf discs. Four replicates were set for each treatment. The pure water treatment was set as control check. The treated discs were placed in a chamber of 24° C., 60%-70% relative humidity and day light. After 72 hours, the number of surviving insects was investigated, and the mortality rate was calculated.

For data set [1], the system named is Tribolium confusum adults. The data set is described as follows: Determination of Tribolium confusum adults (treated feeding bran, 72 h). As to conditions: for mortality at 600 µg/mL: 600 mg/L, read-out: mortality rates against Tribolium confusum adults; for mortality at 5 µg/mL / mortality at 20 µg/mL: read-out: Mortality (%) against Tribolium Confusum Adults. As to the method:
as §1
The test liquid was prepared in the order from low dose to high dose according to the test design. Then, the liquid of different concentrations was added to feeding bran and uniformly stirred, and dried in the shade. Then, the resulting feeding bran was collected in a paper cup. Fifty Tribolium confusum adults with consistent size were put in the paper cup. Three replicates were set for each treatment. Control check was set. The treated test materials were put in an observation room under controlled conditions. After 72 h, the number of dead and surviving adults was investigated.

Another data set has as its system armyworm. The data set is described as follows: Determination of activity against armyworm (corn leaf dip, mortality after 72 hours). Particulars: foliar, 10 mg/L, third instar, read-out: mortality rates against armyworm. The method, then: as §1
The middle leaves of fresh corns were cut into small sections of 3 cm, and dipped into a solution of the required concentration of test compounds for 10 seconds. After dried in shade, the middle leaves were placed in a 9 cm diameter petri dish provided with filter paper. Fourteen regular healthy test insects (third instar) were put into the leaves. Four replicates were set for each treatment. The pure water treatment was set as control check. The treated discs were placed in a chamber of 24° C., 60%-70% relative humidity and day light. After 72 hours, the number of surviving insects was investigated, and the mortality rate was calculated.

Data set [2] relates to western flower thrips nymphs. Briefly: Determination of activity against western flower thrips nymphs (sprayed kidney bean leaves, mortality after 72 hours). Particulars: for mortality at 600 µg/mL / mortality at 10 µg/mL / mortality at 100 µg/mL: Frankliniella occidentalis; for mortality at 600 µg/mL: 600 mg/L, read-out: mortality rates against western flower thrips nymphs; for mortality at 10 µg/mL / mortality at 100 µg/mL: read-out: Mortality (%) against Western Flower Thrips Nymphs. The method, then: as §1
Fresh kidney bean leaves cultured in the glasshouse were selected and uniformly sprayed with 1 ml of the test liquid by using a handheld Airbrush. The leaves were dried naturally and placed in a test tube. Fifteen tidy and healthy western flower thrips nymphs were put into the leaves. Three replicates were set for each treatment. The water treatment was set as control check. After the treatment, the treated tube were placed in a chamber of 24° C., 60%-70% relative humidity and day light. After 72 hours, the number of surviving insects was investigated, and the mortality was calculated.

Data set [3] concerns Tetranychus cinnabarinus adults. Briefly: Determination of acaricidal activity (spray on bean plant leaves with adult spider mites, mortality after 72 hours). As to conditions: after 72 hours, read-out: Mortality (%) against Tetranychus Cinnabarinus Adult. As to the method: as §1
The adult spider mites were put into two true leaves of bean plants. After the number of mites was investigated, the solution of certain concentrations of test compounds was sprayed by using a handheld Airbrush. Three replicates were set for each treatment. Then the leaves were maintained in a standard observation room. After 72 hours, the number of surviving mites was investigated, and the mortality rate was calculated. Compounds I-41, KC3, KC4 and MC were selected for parallel determination of activity against Tetranychus cinnabarinus adults.

Usually mortality stands for the percentage killed. `CCCCN(C(=O)c1ccc2c(c1)OC(F)(F)O2)c1cccc(C(=O)Nc2c(Br)cc(C(F)(C(F)(F)F)C(F)(F)F)cc2OC(F)F)c1F` [Compound I-46, N-(2-bromo-6-difluoromethoxy-4-heptafluoroisopropylphenyl)-2-fluoro-3-(N-n-butyl-2,2-difluoro-1,3-benzodioxole-5-carboxamido) benzamide]: the mortality at 10 µg/mL in the data set on diamondback moth and with armyworm was greater than 90% throughout. The mortality at 600 µg/mL in data set [1] (after 72 h) and in data set [2] (after 72 hours) was greater than 90% throughout.
Take `CN(C(=O)c1ccc2c(c1)OC(F)(F)O2)c1cccc(C(=O)Nc2c(OC(F)F)cc(C(F)(C(F)(F)F)C(F)(F)F)cc2C(F)(F)F)c1F` [Compound I-122]: the mortality at 10 µg/mL in the data set with diamondback moth and with armyworm was greater than 90% each time. Moreover, the mortality at 600 µg/mL in data set [1] (after 72 h) and in data set [2] (after 72 hours) was greater than 90% in each case.
As to `CN(C(=O)c1ccc2c(c1)OC(F)(F)O2)c1cccc(C(=O)Nc2c(Br)cc(C(F)(C(F)(F)F)C(F)(F)F)cc2OC(F)(F)F)c1F` [Compound I-62, N-(2-bromo-4-heptafluoroisopropyl-6-trifluoromethoxyphenyl)-2-fluoro-3-(N-methyl-2,2-difluoro-1,3-benzodioxole-5-carboxamido) benzamide], the mortality at 10 µg/mL in the data set on diamondback moth and in the data set on armyworm was greater than 90% throughout. Further, the mortality at 600 µg/mL in data set [1] (after 72 h) and in data set [2] (after 72 hours) was greater than 90% in each case.
Regarding `CCN(C(=O)c1ccc2c(c1)OC(F)(F)O2)c1cccc(C(=O)Nc2c(Br)cc(C(F)(C(F)(F)F)C(F)(F)F)cc2OC(F)F)c1F` [Compound I-43, N-(2-bromo-6-difluoromethoxy-4-heptafluoroisopropylphenyl)-2-fluoro-3-(N-ethyl-2,2-difluoro-1,3-benzodioxole-5-carboxamido) benzamide], the mortality at 10 µg/mL in the data set with diamondback moth and with armyworm was greater than 90% each time. The mortality at 600 µg/mL in data set [1] (after 72 h) and in data set [2] (after 72 hours) was greater than 90% in each case.
Turning to `CN(C(=O)c1ccc2c(c1)OC(F)(F)O2)c1cccc(C(=O)Nc2c(Cl)cc(C(F)(C(F)(F)F)C(F)(F)F)cc2OC(F)F)c1F` [Compound I-82], the mortality at 10 µg/mL in the data set with diamondback moth and with armyworm was greater than 90% in each case. The mortality at 600 µg/mL in data set [1] (after 72 h) and in data set [2] (after 72 hours) was greater than 90% throughout.
With `O=C(Nc1cccc(C(=O)Nc2c(Br)cc(C(F)(C(F)(F)F)C(F)(F)F)cc2Br)c1F)c1ccc2c(c1)OC(F)(F)O2` [KC1, reference compound], the mortality at 10 µg/mL in data set [2] (10 mg/L, after 72 hours) was found to be 15%. In data set [2] (100 mg/L, after 72 hours), the mortality at 100 µg/mL is 85%.
For the molecule `O=C(Nc1cccc(C(=O)Nc2c(Cl)cc(C(F)(C(F)(F)F)C(F)(F)F)cc2OC(F)F)c1F)c1ccc2c(c1)OC(F)(F)O2` [Compound I-81], the mortality at 10 µg/mL in the data set on diamondback moth and in the data set with armyworm was greater than 90% each time. Besides, the mortality at 600 µg/mL in data set [1] (after 72 h) and in data set [2] (after 72 hours) was greater than 90% each time.
Take `CN(C(=O)c1ccc2c(c1)OC(F)(F)O2)c1cccc(C(=O)Nc2c(Br)cc(C(F)(C(F)(F)F)C(F)(F)F)cc2Br)c1F` [KC2, reference compound]: the mortality at 5 µg/mL in data set [1] (5 mg/L, after 72 h) worked out at 70%. Further, the mortality at 20 µg/mL in data set [1] (20 mg/L, after 72 h) was 76%. Also, the mortality at 10 µg/mL in data set [2] (10 mg/L, after 72 hours) was determined as 59%. The mortality at 100 µg/mL in data set [2] (100 mg/L, after 72 hours) stood at 90%.
In the case of `CC(C)=CCCC(C)CCN(C(=O)c1ccc2c(c1)OC(F)(F)O2)c1cccc(C(=O)Nc2c(Br)cc(C(F)(C(F)(F)F)C(F)(F)F)cc2OC(F)F)c1F` (stereo not shown) [Compound I-57], the mortality at 10 µg/mL in the data set on diamondback moth and in the data set on armyworm was greater than 90% in each case. The mortality at 600 µg/mL in data set [1] (after 72 h) and in data set [2] (after 72 hours) was greater than 90% throughout.
Regarding `CN(C(=O)c1ccccc1)c1cccc(C(=O)Nc2c(Br)cc(C(F)(C(F)(F)F)C(F)(F)F)cc2OC(F)F)c1F` [MC], the mortality at 10 µg/mL is 0% in data set [3] (10 mg/L) and 72% in data set [2] (10 mg/L, after 72 hours). In addition, the mortality at 100 µg/mL amounted to 0% in data set [3] (100 mg/L) and 76% in data set [2] (100 mg/L, after 72 hours). The mortality at 600 µg/mL in data set [3] (600 mg/L) is 0%.
For the molecule `CNC(=O)c1cc(C#N)cc(C)c1NC(=O)c1cc(Br)nn1-c1ncccc1Cl` [Cyantraniliprole, reference compound], in data set [1] (72 h), the mortality at 5 µg/mL stood at 0% and the mortality at 20 µg/mL came to 5%. Moreover, in data set [2] (72 h), the mortality at 10 µg/mL was 25% and the mortality at 100 µg/mL was determined as 85%.
For Spinetoram [reference compound], the “Mortality (%) against Western Flower Thrips Nymphs” value in data set [2] (10 mg/L, after 72 hours) came out at 90%; in data set [2] (100 mg/L, after 72 hours), 100%.
For the molecule `O=C(Nc1c(Br)cc(C(F)(C(F)(F)F)C(F)(F)F)cc1OC(F)F)c1cccc(N(CC2CC2)C(=O)c2ccc3c(c2)OC(F)(F)O3)c1F` [Compound I-50, N-(2-bromo-6-difluoromethoxy-4-heptafluoroisopropylphenyl)-2-fluoro-3-(N-cyclopropylmethyl-2,2-difluoro-1,3-benzodioxole-5-carboxamido) benzamide], the mortality at 10 µg/mL in the data set with diamondback moth and with armyworm was greater than 90% each time. Also, the mortality at 600 µg/mL in data set [1] (after 72 h) and in data set [2] (after 72 hours) was greater than 90% in each case.
Turning to `O=C(Nc1cccc(C(=O)Nc2c(I)cc(C(F)(C(F)(F)F)C(F)(F)F)cc2OC(F)F)c1F)c1ccc2c(c1)OC(F)(F)O2` [Compound I-1], the mortality at 10 µg/mL with diamondback moth and with armyworm was greater than 90% each time. Moreover, the mortality at 600 µg/mL in data set [1] (after 72 h) and in data set [2] (after 72 hours) was greater than 90% each time.
With `CN(C(=O)c1ccc2c(c1)OC(F)(F)O2)c1cccc(C(=O)Nc2c(Br)cc(C(F)(C(F)(F)F)C(F)(F)F)cc2OC(F)F)c1F` [Compound I-42, N-(2-bromo-6-difluoromethoxy-4-heptafluoroisopropylphenyl)-2-fluoro-3-(N-methyl-2,2-difluoro-1,3-benzodioxole-5-carboxamido) benzamide], the mortality at 10 µg/mL with diamondback moth was greater than 90%; in the data set with armyworm, greater than 90%; in data set [2] (10 mg/L, after 72 hours), 91%. Moreover, the mortality at 5 µg/mL in data set [1] (5 mg/L, after 72 h) is 81%. For the same molecule, the mortality at 20 µg/mL in data set [1] (20 mg/L, after 72 h) was 100%. For the same molecule, the mortality at 600 µg/mL in data set [1] (after 72 h) and in data set [2] (after 72 hours) was greater than 90% in each case. Further, the mortality at 100 µg/mL in data set [2] (100 mg/L, after 72 hours) was determined as 100%.
Turning to `O=C(Nc1cccc(C(=O)Nc2c(OC(F)F)cc(C(F)(C(F)(F)F)C(F)(F)F)cc2C(F)(F)F)c1F)c1ccc2c(c1)OC(F)(F)O2` [Compound I-121], the mortality at 10 µg/mL in the data set on diamondback moth and in the data set on armyworm was greater than 90% in each case. Moreover, the mortality at 600 µg/mL in data set [1] (after 72 h) and in data set [2] (after 72 hours) was greater than 90% throughout.
On to `CN(C(=O)c1ccc2c(c1)OC(F)(F)O2)c1cccc(C(=O)Nc2c(I)cc(C(F)(C(F)(F)F)C(F)(F)F)cc2OC(F)F)c1F` [Compound I-2], for which the mortality at 10 µg/mL in the data set on diamondback moth and in the data set on armyworm was greater than 90% in each case. Besides, the mortality at 600 µg/mL in data set [1] (after 72 h) and in data set [2] (after 72 hours) was greater than 90% each time.
Turning to `CSCCCN(C(=O)c1ccc2c(c1)OC(F)(F)O2)c1cccc(C(=O)Nc2c(Br)cc(C(F)(C(F)(F)F)C(F)(F)F)cc2OC(F)F)c1F` [Compound I-60, N-(2-bromo-6-difluoromethoxy-4-heptafluoroisopropylphenyl)-2-fluoro-3-(N-(3-methylthiopropyl)-2,2-difluoro-1,3-benzodioxole-5-carboxamido) benzamide], the mortality at 10 µg/mL in the data set on diamondback moth and in the data set with armyworm was greater than 90% throughout. Moreover, the mortality at 600 µg/mL in data set [1] (after 72 h) and in data set [2] (after 72 hours) was greater than 90% throughout.
